“Also recorded” adds a separate entry of the source.
Legend:
Assay type in all cases: cell-based
[1] = system: Escherichia coli; assay: USP <51> AET in cosmetic cream/composition; conditions: for AET microorganism count: 48 hrs-28 days; for Log Reduction from Initial Microorganism Inoculum: 14, 28 Days
[2] = system: Pseudomonas aeruginosa; assay: USP <51> AET in cosmetic cream/composition; conditions: for AET microorganism count: 48 hrs-28 days; for Log Reduction from Initial Microorganism Inoculum: 14, 28 Days
[3] = system: ATCC strain 8739 Escherichia coli; assay: Bromcresol Purple color change with MSM
Procedure: To investigate whether MSM functions as a carrier/transporter, the ability of MSM to transport Bromcresol into the E. coli was evaluated. Bromcresol Purple is an indicator dye that turns yellow in the presence of E. coli bacteria. It is non-toxic to the organism. […] All concentrations were plated out to 10^−7 dilutions to ascertain the log reduction.
Flake OptiMSM was weighed out using a certified Mettler Toledo AG245 balance SN: 1115210833 and aliquoted for each concentration. […] Tubes were cooled to room temperature which was approximately 20° C. All tubes were then spiked with the same dilution of Escherichia coli that gave a level of colony forming units at 6.0×10^6/mL (6.8). The tubes were then incubated at 25° C. Daily observation for color change was performed during the first seven days. The tubes were mixed periodically to ensure that the OptiMSM was well equilibrated at all times. A positive and negative control was ascertained.

[4] = system: Bacillus coagulans; assay: Probiotic growth in media supplemented with MSM
Source text: Plates were then counted. […] Data are presented in Cfu/mL.

[5] = 10% MSM in Preservative Free Cosmetic Composition #1, 48 hours after inoculation
[6] = 10% MSM in Preservative Free Cosmetic Composition #1, 7 days after inoculation
[7] = 10% MSM in cosmetic cream without preservative
[8] = 10% MSM in preservative-free jojoba cream

Methylsulfonylmethane [MSM]
AET microorganism count [1, 5]: 5.4 × 10^4 | AET microorganism count [1, 6]: <10 | AET microorganism count [1, 7]: <10 | Log Reduction from Initial Microorganism Inoculum [1, 8]: 5.7 log | Log Reduction from Initial Microorganism Inoculum ([1]; 10% MSM, Composition #1): 5.8 log | Log Reduction from Initial Microorganism Inoculum ([1]; 10% MSM, Composition #2): 5.8 log | AET microorganism count [2, 5]: 7.3 × 10^3 | AET microorganism count [2, 6]: <10 | AET microorganism count [2, 7]: <10 | Log Reduction from Initial Microorganism Inoculum [2, 8]: 5.3 log | Log Reduction from Initial Microorganism Inoculum ([2]; 10% MSM, Composition #1): 5.8 log | Log Reduction from Initial Microorganism Inoculum ([2]; 10% MSM, Composition #2): 5.8 log | color change of the broth ([3]; 5-7% MSM, Day one): color change of the broth to yellow | color change of the broth ([3]; 8% MSM, Day one, Day three): slight clearing of color; also recorded: turning to the typical yellow color | color change of the broth ([3]; 9% MSM, Day 7): turning to a yellow color | color change of the broth ([3]; 10%-16% MSM, Day 7, 14, 30): No color change; also recorded: no signs of change | organism recovery, streaked on MacConkey agar ([3]; concentration tubes 10%-16% MSM, 72 hour incubation): No organisms were observed | Growth of Bacillus coagulans ([4]; 0.125% MSM, 0 h): 1.52 log10 CFU/mL | Growth of Bacillus coagulans ([4]; 0.125% MSM, 8 h): 4.81 log10 CFU/mL | Growth of Bacillus coagulans ([4]; 0.125% MSM, 16 h): 6.95 log10 CFU/mL | Growth of Bacillus coagulans ([4]; 0.125% MSM, 24 h): 9.87 log10 CFU/mL | Growth of Bacillus coagulans ([4]; 0.125% MSM, 32 h): 11.06 log10 CFU/mL | Growth of Bacillus coagulans ([4]; 0.125% MSM, 40 h): 11.72 log10 CFU/mL | Growth of Bacillus coagulans ([4]; 0.125% MSM, 48 h): 11.56 log10 CFU/mL | Growth of Bacillus coagulans ([4]; 0.125% MSM, 56 h): 9.60 log10 CFU/mL | Growth of Bacillus coagulans ([4]; 0.125% MSM, 64 h): 12.13 log10 CFU/mL | Growth of Bacillus coagulans ([4]; 0.125% MSM, 72 h): 10.14 log10 CFU/mL | Growth of Bacillus coagulans ([4]; 0.2% MSM, 0 h): 1.67 log10 CFU/mL | Growth of Bacillus coagulans ([4]; 0.2% MSM, 8 h): 4.94 log10 CFU/mL | Growth of Bacillus coagulans ([4]; 0.2% MSM, 16 h): 7.19 log10 CFU/mL | Growth of Bacillus coagulans ([4]; 0.2% MSM, 24 h): 10.34 log10 CFU/mL | Growth of Bacillus coagulans ([4]; 0.2% MSM, 32 h): 11.25 log10 CFU/mL | Growth of Bacillus coagulans ([4]; 0.2% MSM, 40 h): 11.34 log10 CFU/mL | Growth of Bacillus coagulans ([4]; 0.2% MSM, 48 h): 9.94 log10 CFU/mL | Growth of Bacillus coagulans ([4]; 0.2% MSM, 56 h): 11.45 log10 CFU/mL | Growth of Bacillus coagulans ([4]; 0.2% MSM, 64 h): 11.37 log10 CFU/mL | Growth of Bacillus coagulans ([4]; 0.2% MSM, 72 h): 10.94 log10 CFU/mL | Growth of Bacillus coagulans ([4]; 0.50% MSM, 0 h): 1.48 log10 CFU/mL | Growth of Bacillus coagulans ([4]; 0.50% MSM, 8 h): 4.42 log10 CFU/mL | Growth of Bacillus coagulans ([4]; 0.50% MSM, 16 h): 6.94 log10 CFU/mL | Growth of Bacillus coagulans ([4]; 0.50% MSM, 24 h): 10.29 log10 CFU/mL | Growth of Bacillus coagulans ([4]; 0.50% MSM, 32 h): 11.05 log10 CFU/mL | Growth of Bacillus coagulans ([4]; 0.50% MSM, 40 h): 10.25 log10 CFU/mL | Growth of Bacillus coagulans ([4]; 0.50% MSM, 48 h): 10.40 log10 CFU/mL | Growth of Bacillus coagulans ([4]; 0.50% MSM, 56 h): 10.76 log10 CFU/mL | Growth of Bacillus coagulans ([4]; 0.50% MSM, 64 h): 10.45 log10 CFU/mL | Growth of Bacillus coagulans ([4]; 0.50% MSM, 72 h): 10.86 log10 CFU/mL | Growth of Bacillus coagulans ([4]; 1% MSM, 0 h): 1.30 log10 CFU/mL | Growth of Bacillus coagulans ([4]; 1% MSM, 8 h): 4.98 log10 CFU/mL | Growth of Bacillus coagulans ([4]; 1% MSM, 16 h): 7.29 log10 CFU/mL | Growth of Bacillus coagulans ([4]; 1% MSM, 24 h): 10.30 log10 CFU/mL | Growth of Bacillus coagulans ([4]; 1% MSM, 32 h): 11.42 log10 CFU/mL | Growth of Bacillus coagulans ([4]; 1% MSM, 40 h): 11.02 log10 CFU/mL | Growth of Bacillus coagulans ([4]; 1% MSM, 48 h): 10.38 log10 CFU/mL | Growth of Bacillus coagulans ([4]; 1% MSM, 56 h): 10.86 log10 CFU/mL | Growth of Bacillus coagulans ([4]; 1% MSM, 64 h): 10.40 log10 CFU/mL | Growth of Bacillus coagulans ([4]; 1% MSM, 72 h): 10.70 log10 CFU/mL | Growth of Bacillus coagulans ([4]; 5% MSM, 0 h): 1.56 log10 CFU/mL | Growth of Bacillus coagulans ([4]; 5% MSM, 8 h): 4.61 log10 CFU/mL | Growth of Bacillus coagulans ([4]; 5% MSM, 16 h): 7.56 log10 CFU/mL | Growth of Bacillus coagulans ([4]; 5% MSM, 24 h): 10.48 log10 CFU/mL | Growth of Bacillus coagulans ([4]; 5% MSM, 32 h): 11.55 log10 CFU/mL | Growth of Bacillus coagulans ([4]; 5% MSM, 40 h): 10.85 log10 CFU/mL | Growth of Bacillus coagulans ([4]; 5% MSM, 48 h): 10.22 log10 CFU/mL | Growth of Bacillus coagulans ([4]; 5% MSM, 56 h): 11.1 log10 CFU/mL | Growth of Bacillus coagulans ([4]; 5% MSM, 64 h): 10.75 log10 CFU/mL | Growth of Bacillus coagulans ([4]; 5% MSM, 72 h): 11.81 log10 CFU/mL | Growth of Bacillus coagulans ([4]; […] MSM, 0 h): 1.43 log10 CFU/mL

Reference: patent US20110105623A1 (Biogenic Innovations, LLC, priority 2009, published 2011)
